Legend:
PI3K delta = biological target: T1, PI3K delta (Homo sapiens, UniProt O00329); assay: In vitro enzyme assay, PI3K delta biochemical potency; conditions: comparison of the two separated enantiomers
T1 construct: Full length p110 subunits of PI3k α, β and δ, N-terminally labeled with polyHis tag; polyHis (N); made in house; host or cells: Sf9 insect cells (baculovirus)
Protocol: Full length p110 subunits of PI3k α, β and δ, N-terminally labeled with polyHis tag, were coexpressed with p85 with Baculo virus expression vectors in sf9 insect cells. P110/p85 heterodimers were purified by sequential Ni-NTA, Q-HP, Superdex-100 chromatography. Purified α, β and δ isozymes were stored at −20° C. in 20 mM Tris, pH 8, 0.2M NaCl, 50% glycerol, 5 mM DTT, 2 mM Na cholate. Truncated PI3Kγ, residues 114-1102, N-terminally labeled with polyHis tag, was expressed with Baculo virus in Hi5 insect cells. The γ isozyme was purified by sequential Ni-NTA, Superdex-200, Q-HP chromatography. The γ isozyme was stored frozen at −80° C. in NaH2PO4, pH 8, 0.2M NaCl, 1% ethylene glycol, 2 mM β-mercaptoethanol.
Assays were performed in 25 μL with the above final concentrations of components in white polyproplyene plates (Costar 3355). Phospatidyl inositol phosphoacceptor, PtdIns(4,5)P2 P4508, was from Echelon Biosciences. The ATPase activity of the alpha and gamma isozymes was not greatly stimulated by PtdIns(4,5)P2 under these conditions and was therefore omitted from the assay of these isozymes. Test compounds were dissolved in dimethyl sulfoxide and diluted with three-fold serial dilutions. The compound in DMSO (1 μL) was added per test well, and the inhibition relative to reactions containing no compound, with and without enzyme was determined. After assay incubation at rt, the reaction was stopped and residual ATP determined by addition of an equal volume of a commercial ATP bioluminescence kit (Perkin Elmer EasyLite) according to the manufacturer's instructions, and detected using a AnalystGT luminometer.

protein kinases = conditions: cited from earlier work
p110δ = biological target: T2, p110δ (Homo sapiens, UniProt O00329); conditions: cited from earlier work
T2 sequence (O00329 1-1044): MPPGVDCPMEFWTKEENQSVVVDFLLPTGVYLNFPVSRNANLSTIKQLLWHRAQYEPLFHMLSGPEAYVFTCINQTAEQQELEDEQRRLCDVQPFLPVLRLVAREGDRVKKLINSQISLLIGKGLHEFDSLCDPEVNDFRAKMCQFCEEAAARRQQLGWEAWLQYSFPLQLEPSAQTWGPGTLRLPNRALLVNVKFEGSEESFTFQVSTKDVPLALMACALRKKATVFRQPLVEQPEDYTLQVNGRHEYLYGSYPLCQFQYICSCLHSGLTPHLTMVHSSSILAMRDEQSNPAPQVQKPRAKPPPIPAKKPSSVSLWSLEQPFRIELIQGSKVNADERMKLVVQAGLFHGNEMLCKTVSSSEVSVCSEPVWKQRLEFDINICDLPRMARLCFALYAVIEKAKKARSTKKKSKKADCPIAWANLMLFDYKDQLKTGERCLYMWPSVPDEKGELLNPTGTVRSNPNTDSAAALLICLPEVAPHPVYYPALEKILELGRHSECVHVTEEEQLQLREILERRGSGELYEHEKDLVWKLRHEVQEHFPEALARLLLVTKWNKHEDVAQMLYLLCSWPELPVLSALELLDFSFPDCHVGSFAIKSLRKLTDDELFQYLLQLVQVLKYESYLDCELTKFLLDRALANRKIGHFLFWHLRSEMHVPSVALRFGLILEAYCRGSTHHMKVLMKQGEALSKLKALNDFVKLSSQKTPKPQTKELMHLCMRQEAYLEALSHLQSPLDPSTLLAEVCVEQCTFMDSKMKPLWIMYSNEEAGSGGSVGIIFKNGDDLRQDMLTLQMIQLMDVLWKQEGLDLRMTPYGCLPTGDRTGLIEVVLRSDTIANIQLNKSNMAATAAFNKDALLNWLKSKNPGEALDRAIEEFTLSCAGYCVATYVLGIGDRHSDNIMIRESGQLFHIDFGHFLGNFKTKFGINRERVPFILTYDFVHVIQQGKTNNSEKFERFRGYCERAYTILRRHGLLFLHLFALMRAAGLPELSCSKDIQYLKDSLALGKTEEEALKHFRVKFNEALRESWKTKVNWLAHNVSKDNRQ

[1] = test system: ovalbumin-induced airway inflammation; conditions: cited from earlier work
[2] = test system: systemic lupus erythematosis model; conditions: in vivo; cited from earlier work
[3] = test system: rheumatoid arthritis model; conditions: in vivo; cited from earlier work

T1 sequence (P27986 whole entry partner, one chain of several): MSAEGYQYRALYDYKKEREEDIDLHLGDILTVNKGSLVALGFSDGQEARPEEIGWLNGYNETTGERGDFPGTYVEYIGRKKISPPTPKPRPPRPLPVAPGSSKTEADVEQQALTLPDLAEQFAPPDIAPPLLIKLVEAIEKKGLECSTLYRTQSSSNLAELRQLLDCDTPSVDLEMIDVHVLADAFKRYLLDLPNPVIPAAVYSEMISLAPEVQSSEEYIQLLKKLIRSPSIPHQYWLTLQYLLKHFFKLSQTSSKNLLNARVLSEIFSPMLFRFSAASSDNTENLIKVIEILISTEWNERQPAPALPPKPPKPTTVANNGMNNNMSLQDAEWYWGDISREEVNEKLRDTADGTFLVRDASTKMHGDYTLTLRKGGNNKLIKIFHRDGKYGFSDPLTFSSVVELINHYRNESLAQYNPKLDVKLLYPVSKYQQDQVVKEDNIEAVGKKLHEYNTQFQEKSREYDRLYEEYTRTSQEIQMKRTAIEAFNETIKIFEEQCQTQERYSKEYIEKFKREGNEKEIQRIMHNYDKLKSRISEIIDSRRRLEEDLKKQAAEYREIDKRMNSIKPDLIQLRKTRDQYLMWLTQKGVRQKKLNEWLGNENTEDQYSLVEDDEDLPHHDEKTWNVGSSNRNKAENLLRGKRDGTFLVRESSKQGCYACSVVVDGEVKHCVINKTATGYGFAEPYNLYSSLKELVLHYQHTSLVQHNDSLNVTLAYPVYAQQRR

PI3K delta biochemical potency, one isomer relative to the other (PI3K delta) | Structure (SMILES) | also measured
more potent | C[C@H](Nc1ncnc(N)c1C#N)c1nc2cccnc2cc1-c1ccccc1 (single isomer, unassigned; isomer 4) [Example 4 S-isomer] | –
less potent | C[C@@H](Nc1ncnc(N)c1C#N)c1nc2cccnc2cc1-c1ccccc1 (single isomer, unassigned; isomer 4) [Example 4 R-isomer] | –
more potent | C[C@H](Nc1ncnc(N)c1C#N)c1cc2ncccc2nc1-c1cc(F)cc(F)c1 (single isomer, unassigned; isomer 4) [Example 3 S-isomer] | –

Second part, the compound before the results:

Structure (SMILES) | PI3K delta biochemical potency, one isomer relative to the other (PI3K delta) | also measured
C[C@@H](Nc1ncnc(N)c1C#N)c1cc2ncccc2nc1-c1ccccc1F (single isomer, unassigned; isomer 4) [Example 2 R-isomer] | less potent | –
Cc1ccccc1-n1c(Cn2cnc3c(N)ncnc32)nc2cccc(C)c2c1=O [IC87114] | – | activity against any protein kinases tested (protein kinases): no activity; inhibition of p110δ (p110δ): high nanomolar range (triple digit); inflammation and disease in a murine model of asthma [1]: significantly ameliorate inflammation and disease
C[C@H](Nc1ncnc(N)c1C#N)c1cc2ncccc2nc1-c1ccccc1F (single isomer, unassigned; isomer 4) [Example 2 S-isomer] | more potent | –
C[C@@H](Nc1ncnc(N)c1C#N)c1cc2ncccc2nc1-c1cc(F)cc(F)c1 (single isomer, unassigned; isomer 4) [Example 3 R-isomer] | less potent | –
O=C1NC(=O)/C(=C\c2ccc3nccnc3c2)S1 [AS 605240] | – | onset of disease in a model of systemic lupus erythematosis [2]: delay onset of disease; efficacy in a mouse model of rheumatoid arthritis [3]: efficacious
